Consider 5 compounds from article PMC12147714 (FEMS Microbiology Letters, 2025).

Read-outs that look alike come from different tables or passages of the source.

The test system of one test is PAO1 producing NDM-1. In words: MIC and checkerboard by broth microdilution, recombinant strain. It counts as cell-based, Pseudomonas aeruginosa. The note with it: antibiotic alone. Here is the method:
(§1) The fractional inhibitory concentration index (FICI) was calculated and interpreted as follows: the MIC of drug A in combination/the MIC of drug A alone + the MIC of drug B in combination/the MIC drug B alone. FICI ≤ 0.5 = synergy; 0.5 < FICI ≤ 1 = additive; FICI 1 < FICI < 2 = indifference, and FICI ≥ 2 = antagonism. All susceptibility testing/checkerboard assays were performed in triplicate.
For orientation: Broth dilution looks for growth in wells or tubes with falling amounts of substance.

Test [1] has as its system PAO1 TnoprD producing VIM-1. Described as above. The test is classed as cell-based, Pseudomonas aeruginosa. Conditions: VIM-1 TnoprD; antibiotic alone. The procedure:
as §1

In another test the test system is PAO1 producing IMP-10. The test is described as above. It counts as cell-based, Pseudomonas aeruginosa. Conditions: antibiotic alone. Here is the method: as §1
Test [2] relates to PAO1 TnoprD producing IMP-1. Described as above. It counts as cell-based, Pseudomonas aeruginosa. Conditions: IMP-1 TnoprD; antibiotic alone. The procedure:
as §1

The subject of test [3] is PAO1 TnoprD producing NDM-1. The description is as above. The test is classed as cell-based, Pseudomonas aeruginosa. The note with it: NDM-1 TnoprD; antibiotic alone. The procedure: as §1
The test system of another test is PAO1 producing VIM-1. The test is described as above. Conditions: antibiotic alone. It counts as cell-based, Pseudomonas aeruginosa.
Description: (§2) Pseudomonas aeruginosa isolate, PAO1, was used alongside its isogenic counterpart, PAO1 TnoprD, which lacks a functional OprD porin (Held et al. [2012]). β-lactamases, blaIMP-1, blaIMP-10, blaIMP-13, blaNDM-1, blaSPM-1, blaVIM-1, blaVIM-2, and blaKPC-2, had previously been cloned into the pUCP24 shuttle vector (Bouvier et al. [2025]), and were transformed by electroporation into both PAO1 and PAO1 TnoprD.
as §1, with “. MICs of DMSA, CAZ, FEP and checkerboards for the combinations, CAZ/DMSA and FEP/DMSA, were performed for all clinical isolates. All susceptibility testing results were interpreted according to CLSI guidelines (CLSI [2023]). The” for “The”

The next test has as its system PAO1 producing VIM-2. The description is as above. The note with it: antibiotic alone. It counts as cell-based, Pseudomonas aeruginosa.
Description: as §2
as §1, with “. MICs of DMSA, CAZ, FEP and checkerboards for the combinations, CAZ/DMSA and FEP/DMSA, were performed for all clinical isolates. All susceptibility testing results were interpreted according to CLSI guidelines (CLSI [2023]). The” for “The”

Another test relates to PAO1 producing SPM-1. The description is as above. It counts as cell-based, Pseudomonas aeruginosa. Conditions: antibiotic alone.
Description: as §2
as §1, with “. MICs of DMSA, CAZ, FEP and checkerboards for the combinations, CAZ/DMSA and FEP/DMSA, were performed for all clinical isolates. All susceptibility testing results were interpreted according to CLSI guidelines (CLSI [2023]). The” for “The”

Test [4] has as its system PAO1 TnoprD producing IMP-13. The test is described as above. It counts as cell-based, Pseudomonas aeruginosa. Conditions: IMP-13 TnoprD; antibiotic alone.
Description: as §2
as §1, with “. MICs of DMSA, CAZ, FEP and checkerboards for the combinations, CAZ/DMSA and FEP/DMSA, were performed for all clinical isolates. All susceptibility testing results were interpreted according to CLSI guidelines (CLSI [2023]). The” for “The”

Test [5] has as its system PAO1 TnoprD producing VIM-2. The test is described as above. The test is classed as cell-based, Pseudomonas aeruginosa. The note with it: VIM-2 TnoprD; antibiotic alone.
Description: as §2
as §1, with “. MICs of DMSA, CAZ, FEP and checkerboards for the combinations, CAZ/DMSA and FEP/DMSA, were performed for all clinical isolates. All susceptibility testing results were interpreted according to CLSI guidelines (CLSI [2023]). The” for “The”

Another test has as its system PAO1 producing IMP-1. Described as above. The test is classed as cell-based, Pseudomonas aeruginosa. The note with it: antibiotic alone.
Description: as §2
as §1, with “. MICs of DMSA, CAZ, FEP and checkerboards for the combinations, CAZ/DMSA and FEP/DMSA, were performed for all clinical isolates. All susceptibility testing results were interpreted according to CLSI guidelines (CLSI [2023]). The” for “The”

A further test has as its system PAO1 producing IMP-13. The description is as above. It counts as cell-based, Pseudomonas aeruginosa. Conditions: antibiotic alone.
Description: as §2
as §1, with “. MICs of DMSA, CAZ, FEP and checkerboards for the combinations, CAZ/DMSA and FEP/DMSA, were performed for all clinical isolates. All susceptibility testing results were interpreted according to CLSI guidelines (CLSI [2023]). The” for “The”

The test system of test [6] is PAO1 TnoprD producing IMP-10. Described as above. It counts as cell-based, Pseudomonas aeruginosa. The note with it: IMP-10 TnoprD; antibiotic alone.
Description: as §2
as §1, with “. MICs of DMSA, CAZ, FEP and checkerboards for the combinations, CAZ/DMSA and FEP/DMSA, were performed for all clinical isolates. All susceptibility testing results were interpreted according to CLSI guidelines (CLSI [2023]). The” for “The”

Test [7] relates to PAO1 TnoprD producing SPM-1. Described as above. The test is classed as cell-based, Pseudomonas aeruginosa. Conditions: SPM-1 TnoprD; antibiotic alone.
Description: as §2
as §1, with “. MICs of DMSA, CAZ, FEP and checkerboards for the combinations, CAZ/DMSA and FEP/DMSA, were performed for all clinical isolates. All susceptibility testing results were interpreted according to CLSI guidelines (CLSI [2023]). The” for “The”

Test [8] has as its system PAO1 and PAO1 TnoprD producing one of eight different carbapenemases. In words: MIC and checkerboard, isogenic strains as a group. It counts as cell-based, Pseudomonas aeruginosa.
Description: as §2
as §1, with “. MICs of DMSA, CAZ, FEP and checkerboards for the combinations, CAZ/DMSA and FEP/DMSA, were performed for all clinical isolates. All susceptibility testing results were interpreted according to CLSI guidelines (CLSI [2023]). The” for “The”

Test [9] relates to PAO1 TnoprD producing KPC-2. The test is classed as cell-based, Pseudomonas aeruginosa. The note with it: KPC-2 TnoprD; antibiotic alone. Here is the method: as §1
Another test deals with PAO1 producing KPC-2. The test is classed as cell-based, Pseudomonas aeruginosa. Conditions: antibiotic alone. The procedure:
as §1

The target of another test is VIM-1 (Pseudomonas aeruginosa, UniProt A0A0F7KYQ8). Nature of the test: IC50, inhibition of cephalothin hydrolysis by crude extract.
For another test, the system named is IMP-producers. Also noted: method as in Hamrick et al. 2020, Le Terrier et al. 2024. Conditions: ref Hamrick et al. 2020, Le Terrier et al. 2024; cited from earlier work.
For another test, the target named is SPM-1 (Pseudomonas aeruginosa, UniProt Q8G9Q0). In words: IC50, inhibition of cephalothin hydrolysis by crude extract.
Another test deals with VIM-2 (Escherichia coli, UniProt Q5U7L7). Described as above.
For another test, the target named is IMP-13 (Pseudomonas aeruginosa, UniProt Q7WYA8). The description is as above.
The target of the next test is IMP-1 (Serratia marcescens, UniProt P52699). The description is as above.
The target of test [10] is T1, IMP-10 (Serratia marcescens, UniProt P52699, V49F). The test is described as above.
Test [11] concerns the target T1, IMP-10. Conditions: ref Le Terrier et al. 2024; cited from earlier work.

T1 sequence (P52699 19-246 V49F): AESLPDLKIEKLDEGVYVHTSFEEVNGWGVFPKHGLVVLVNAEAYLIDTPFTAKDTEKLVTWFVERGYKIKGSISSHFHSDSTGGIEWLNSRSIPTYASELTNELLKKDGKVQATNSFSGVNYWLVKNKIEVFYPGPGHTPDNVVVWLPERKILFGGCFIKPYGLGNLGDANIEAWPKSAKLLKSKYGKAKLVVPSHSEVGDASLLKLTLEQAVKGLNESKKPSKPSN
Sequence of SPM-1 (Q8G9Q0 entry or part of it): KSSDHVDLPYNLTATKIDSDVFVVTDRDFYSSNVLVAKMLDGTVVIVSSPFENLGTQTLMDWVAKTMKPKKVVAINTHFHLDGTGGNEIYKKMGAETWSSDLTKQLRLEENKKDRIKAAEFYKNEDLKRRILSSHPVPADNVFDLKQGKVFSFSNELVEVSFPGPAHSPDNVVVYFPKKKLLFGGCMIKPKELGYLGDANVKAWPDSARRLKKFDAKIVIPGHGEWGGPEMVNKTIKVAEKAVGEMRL
Sequence of IMP-1 (P52699 19-246 limits assumed): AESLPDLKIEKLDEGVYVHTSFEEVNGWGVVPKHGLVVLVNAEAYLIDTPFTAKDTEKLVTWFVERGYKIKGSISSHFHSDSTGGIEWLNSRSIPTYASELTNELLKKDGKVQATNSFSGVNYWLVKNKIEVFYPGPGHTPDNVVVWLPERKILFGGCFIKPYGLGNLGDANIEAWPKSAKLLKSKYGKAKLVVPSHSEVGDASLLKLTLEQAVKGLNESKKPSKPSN
Sequence of IMP-13 (Q7WYA8 21-246): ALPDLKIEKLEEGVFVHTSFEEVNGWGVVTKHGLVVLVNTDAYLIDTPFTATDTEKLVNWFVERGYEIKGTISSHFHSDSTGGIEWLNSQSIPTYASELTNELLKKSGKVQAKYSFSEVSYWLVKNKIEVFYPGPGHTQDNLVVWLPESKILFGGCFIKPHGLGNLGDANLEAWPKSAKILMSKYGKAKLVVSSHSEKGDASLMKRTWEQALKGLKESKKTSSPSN

For `CO/N=C(\C(=O)N[C@@H]1C(=O)N2C(C(=O)[O-])=C(C[N+]3(C)CCCC3)CS[C@H]12)c1csc(N)n1` [FEP, cefepime], the MIC in the test on PAO1 producing NDM-1 is 256 µg/mL; in test [1], 512 µg/mL; with PAO1 producing IMP-10, 256 µg/mL; in test [2] it was 512 µg/mL; in [3], 256 µg/mL; with PAO1 producing VIM-1, 512 µg/mL. Besides, the MIC came to 2 µg/mL in the test with PAO1 producing VIM-2; 64 µg/mL with PAO1 producing SPM-1; 16 µg/mL in test [4]; 2 µg/mL in test [5]; 512 µg/mL with PAO1 producing IMP-1; 16 µg/mL with PAO1 producing IMP-13. The MIC in test [6] turned out to be 256 µg/mL; in test [7] it was 64 µg/mL; in [9], 512 µg/mL; in the test with PAO1 producing KPC-2 it was 512 µg/mL. Also, the “interaction with DMSA as indicated by the FICIs” value in test [8] (strains producing IMP-1, IMP-10 or IMP-13, with and without functional OprD, all three DMSA concentrations (100, 200, 300 mg/l)) is listed as “synergy (FICI ≤ 0.5 = synergy)”.
In the case of `C[C@@H](O)[C@H]1C(=O)N2C(C(=O)O)=C(SCCN=CN)C[C@H]12` [IPM, imipenem], the MIC turned out to be 32 µg/mL with PAO1 producing NDM-1; 8 µg/mL in the test with PAO1 producing IMP-10; 64 µg/mL in test [2]; 64 µg/mL in the test with PAO1 producing VIM-1; 4 µg/mL with PAO1 producing VIM-2; 2 µg/mL in the test on PAO1 producing SPM-1. Besides, the MIC came to 8 µg/mL in [4]; 32 µg/mL in test [5]; 16 µg/mL with PAO1 producing IMP-1; 1 µg/mL in the test with PAO1 producing IMP-13; 64 µg/mL in test [6]; 16 µg/mL in test [7]. The MIC in test [9] was 512 µg/mL.
Turning to `C[C@@H](O)[C@H]1C(=O)N2C(C(=O)O)=C(S[C@@H]3CN[C@H](C(=O)N(C)C)C3)[C@H](C)[C@H]12` [MEM, meropenem], the MIC in test [3] came to 256 µg/mL; in the test on PAO1 producing VIM-1, 64 µg/mL; with PAO1 producing VIM-2, 4 µg/mL; with PAO1 producing SPM-1, 32 µg/mL; in test [4] it was 8 µg/mL; in [5] it was 8 µg/mL. Also, the MIC was determined as 64 µg/mL with PAO1 producing IMP-1; 4 µg/mL in the test on PAO1 producing IMP-13; 256 µg/mL in [6]; 64 µg/mL in [7]; 512 µg/mL in test [9]; 256 µg/mL in the test with PAO1 producing KPC-2. In addition, the “interaction with DMSA as indicated by the FICIs” value in test [8] (SPM-1 strains, DMSA 200 and 300 mg/l) was “synergy (FICI ≤ 0.5 = synergy)”; in test [8] (strains producing IMP-1, IMP-10 or IMP-13, with and without functional OprD, DMSA 200 and 300 mg/l) it was “synergy (FICI ≤ 0.5 = synergy)”.
In the case of `NCCN[C@H]1CC[C@H](CC(=O)N[C@H]2Cc3cccc(C(=O)O)c3OB2O)CC1` [TAN, taniborbactam], the IC50 was 0.8 µM against VIM-1 (VIM-1, 100 μM cephalothin, pH 7.0); 2.7 µM at SPM-1 (SPM-1, 100 μM cephalothin, pH 7.0); 0.5 µM against VIM-2 (VIM-2, 100 μM cephalothin, pH 7.0); more than 1000 µM at IMP-13 (IMP-13, 100 μM cephalothin, pH 7.0); more than 1000 µM at IMP-1 (IMP-1, 100 μM cephalothin, pH 7.0); more than 1000 µM at IMP-10 [10] (IMP-10, 100 μM cephalothin, pH 7.0). Also, the “activity against IMP-producers” value in the test on IMP-producers is on record as “poor activity”.
As for `O=C(O)c1c(F)ccc2c1OB(O)[C@@H]1C[C@H]21` [XER, xeruborbactam], the IC50 on VIM-1 was 0.5 µM; at SPM-1 it was more than 1000 µM; at VIM-2, 0.1 µM; against IMP-13, 3.6 µM; against IMP-1, 2.7 µM; at IMP-10 [10], 73 µM. In addition, the “activity against IMP-10” value on IMP-10 [11] is given as “limited activity”.

Usually MIC stands for the smallest concentration in the dilution series that meets the test's criterion for growth inhibition. Broadly, the IC50 is the concentration at which inhibition is half-maximal. Low readings indicate greater potency in that assay, high ones weaker potency in that assay.
